These results are taken from ChEMBL document CHEMBL5375980, “PSMA-targeted small-molecule drug-conjugates with valine-citrulline and phosphoramidate cleavable linkers” (Bioorg Med Chem Lett, 2024).

Assay [1] concerns LNCaP C4-2B. In words: Anticancer activity against PSMA positive human LNCaP C4-2B cells assessed as cell viability at 10 nM incubated for 72 hrs by CellTiter-Glo Luminescent Cell Viability assay relative to control. The format is functional. Particulars: read-out: Activity.
Assay [2] can be described thus: Anticancer activity against PMSA positive human PC3-PIP cells assessed as cell viability at 10 nM incubated for 72 hrs by CellTiter-Glo Luminescent Cell Viability assay relative to control. Format: functional. Particulars: read-out: Activity.
The test system of assay [3] is PC-3. In words: Anticancer activity against PMSA negative human PC-3 cells assessed as reduction in cell viability at 10 nM incubated for 72 hrs by CellTiter-Glo Luminescent Cell Viability assay. The format is functional, cell-based.
Assay [4] has as its system LNCaP C4-2B. In words: Anticancer activity against PSMA positive human LNCaP C4-2B cells assessed as cell viability at 20 nM incubated for 72 hrs by CellTiter-Glo Luminescent Cell Viability assay relative to control. The format is functional. Particulars: read-out: Activity.
Assay [5] has as its system LNCaP C4-2B. In words: Anticancer activity against PSMA positive human LNCaP C4-2B cells assessed as cell viability at 100 nM incubated for 72 hrs by CellTiter-Glo Luminescent Cell Viability assay relative to control. Format: functional. Particulars: read-out: Activity.
Assay [6] concerns LNCaP C4-2B. Briefly: Anticancer activity against PSMA positive human LNCaP C4-2B cells assessed as reduction in cell viability incubated for 72 hrs by CellTiter-Glo Luminescent Cell Viability assay. Format: functional, cell-based. Conditions: dose […].
For a further assay, the system named is PC3-PIP cell. Briefly: Anticancer activity against PSMA positive human PC3-PIP cells assessed as reduction in cell viability incubated for 72 hrs by CellTiter-Glo Luminescent Cell Viability assay. Format: functional, cell-based. Conditions: dose 4-100 µM.
Assay [7] has as its system LNCaP C4-2B. Briefly: Anticancer activity against PSMA positive human LNCaP C4-2B cells assessed as reduction in cell viability at 10 nM incubated for 72 hrs by CellTiter-Glo Luminescent Cell Viability assay. The format is functional, cell-based.
Assay [8] can be described thus: Anticancer activity against PSMA positive human PC3-PIP cells assessed as cell viability at 4 nM incubated for 72 hrs by CellTiter-Glo Luminescent Cell Viability assay relative to control. Particulars: read-out: Activity. Format: functional.
Assay [9] is described as follows: Anticancer activity against PSMA positive human PC3-PIP cells assessed as cell viability at 100 nM incubated for 72 hrs by CellTiter-Glo Luminescent Cell Viability assay relative to control. The format is functional. Conditions: read-out: Activity.
For assay [10], the system named is PC-3. Briefly: Anticancer activity against PMSA negative human PC-3 cells assessed as cell viability at 10 nM incubated for 72 hrs by CellTiter-Glo Luminescent Cell Viability assay relative to control. The format is functional. Particulars: read-out: Activity.

The source made the active and inactive calls. The calls are words filed in the database; no cut-off is given here. Where a SMILES comes first, the peptide text is derived from it. [ ]: non-standard residue; d: D form. The star is where a group is joined. Dolaproine = CO[C@@H]([C@@H]1CCCN1)[C@@H](C)C(=O)O; Dil = CC[C@H](C)[C@H](NC)[C@@H](CC(=O)O)OC; X1 = C[C@@H](N*)[C@@H](O)c1ccccc1; NMeV = CN[C@H](C(=O)O)C(C)C

For the molecule `CC[C@H](C)[C@@H]([C@@H](CC(=O)N1CCC[C@H]1[C@H](OC)[C@@H](C)C(=O)N[C@H](C)[C@@H](O)c1ccccc1)OC)N(C)C(=O)[C@@H](NC(=O)[C@H](C(C)C)N(C)C(=O)OCc1ccc(OC(=O)N(C)CCN(C)P(=O)(O)OCC[C@H](NC(=O)c2ccc(Cn3nnc4c3-c3ccccc3N(C(=O)CCC(=O)NCCOCCOCCOCCOCCC(=O)NCCCCCC(=O)N[C@@H](CCC(=O)N[C@@H](CCCOP(=O)(O)N[C@@H](CCC(=O)O)C(=O)O)C(=O)O)C(=O)O)c3ccccc3-4)cc2)C(=O)O)cc1)C(C)C`, the results for the viability at 0.01 µM (in the assay on LNCaP C4-2B [1]; in [2]) were 58.8% and 47.2%, respectively. In the assay with PC-3 [3], the result was inactive. In the assay with LNCaP C4-2B [4], the viability at 0.02 µM is 28.7%. The viability at 0.1 µM with LNCaP C4-2B [5] was 7.44%. The Activity result with LNCaP C4-2B [6] and with PC3-PIP cell was “Dose-Dependent Effect” throughout.

As to `CC[C@H](C)[C@@H]([C@@H](CC(=O)N1CCC[C@H]1[C@H](OC)[C@@H](C)C(=O)N[C@H](C)[C@@H](O)c1ccccc1)OC)N(C)C(=O)[C@@H](NC(=O)[C@H](C(C)C)N(C)C(=O)OCc1ccc(NC(=O)[C@H](CCCNC(N)=O)NC(=O)[C@@H](NC(=O)c2ccc(Cn3nnc4c3-c3ccccc3N(C(=O)CCC(=O)NCCOCCOCCOCCOCCC(=O)NCCCCCC(=O)N[C@@H](CCC(=O)N[C@@H](CCCOP(=O)(O)N[C@@H](CCC(=O)O)C(=O)O)C(=O)O)C(=O)O)c3ccccc3-4)cc2)C(C)C)cc1)C(C)C`, the viability at 0.01 µM in assay [2] is under 50%. For the same molecule, the outcome with LNCaP C4-2B [7] and with PC-3 [3] was inactive. The viability at 0.004 µM in assay [8] was 80.9%. Also, the viability at 0.1 µM in assay [9] is 25.8%.

Consider `CC[C@H](C)[C@@H]([C@@H](CC(=O)N1CCC[C@H]1[C@H](OC)[C@@H](C)C(=O)N[C@H](C)[C@@H](O)c1ccccc1)OC)N(C)C(=O)[C@@H](NC(=O)[C@@H](NC)C(C)C)C(C)C` (H-[NMeV]V[Dil][Dolaproine]-X1), for which the viability at 0.01 µM (in the assay on LNCaP C4-2B [1]; in [2]; in the assay with PC-3 [10]) was under 50% in each case.
